SMILES strings stand for the structures. Where “and” joins values, the source holds several entries; their conditions need not be identical. Equal entries are not always repeated.

A short description of data set [1]: oxygen radical absorbance capacity (ORAC) assay. Format: biochemical. The method, then: FIGS. 6 and 7 illustrate ORAC and CAP-e antioxidant tests conducted on Dihydroquercetin (taxifolin). The ORAC test measures the scavenging capacity at 37° C. of peroxyl radical induced by 2,2 -azobis-(2-amidinopropane) dihydrochloride (AAPH) using fluorescence at a wavelength of 565 nm with excitation at 540 nm. The results are calculated and expressed as milimoles of Trolox equivalents per gram. This test is widely used for evaluation and comparison of the antioxidant capacity in natural products and extracts and has been successfully applied to bioavailability studies, showing increased antioxidant capacity in serum in test subjects after consumption of antioxidant-rich foods.
Two different but synergistic testing principles are shown in FIG. 6: (A) The oxygen radical absorbance capacity (ORAC) assay is a chemical test, in which interference with specific chemical reactions are measured; (B) The cell-based antioxidant protection in erythrocytes (CAP-e) assay reflects whether antioxidants can enter into and protect live cells from oxidative damage. Dihydroquercetin (taxifolin) has the ORAChydrophilic assay over 15,000 μmol TE/g.

For data set [2] the following is noted: concentration 0.001%; cooled samples, traditional recipe; day 7 of storage; cited from earlier work.
A further data set has as its system rats. Particulars: high levels, long periods of time; cited from earlier work.
The subject of the next data set is serum and liver lipids. The conditions noted are these: following exposure to toxic ionizing radiation; cited from earlier work.
The next data set concerns lipid peroxidation. Particulars: in vitro and ex vivo; cited from earlier work.
The conditions of data set [3]: lard, cottonseed oil, and butter oil; cited from earlier work.
For data set [4] the following is noted: milks produced during the dry-lot regime; cited from earlier work.

Regarding `O=C1c2c(O)cc(O)cc2OC(c2ccc(O)c(O)c2)C1O` (stereo not shown) [Dihydroquercetin (taxifolin)], the ORAChydrophilic assay result in data set [1] is recorded as “over 15,000 μmol TE/g”. Moreover, the “peroxide values lower by” value in data set [2] is 57.1% and 58.60%. For the same molecule, the toxic effects result in the data set with rats is listed as “No toxic effects were observed”. Further, the “peroxidation of serum and liver lipids” value in the data set with serum and liver lipids was “inhibited”. The lipid peroxidation entry in the data set on lipid peroxidation is recorded as “inhibits”. In addition, the antioxidant effect result in data set [3] is “effective antioxidant”. Moreover, the “development of spontaneous oxidation” value in data set [4] was “inhibited”.

The record behind these values is patent US20130287919A1, “METHOD OF USING DIETARY INGREDIENTS DIHYDROQUERCETIN (TAXIFOLIN), ARABINOGALACTAN AND ARABINOGALACTAN IN COMBINATION WITH DIHYDROQUERCETIN (TAXIFOLIN) FOR APPLICATIONS IN FOOD PRODUCTS” (FLAVITPURE, INC., priority 2012, published 2013).
